Eleven molecules from patent US20230021562A1, “[…] D[…]-1 INHIBITORS” (priority 2019, published 2023) can be followed below.

In assay [1] the target is Myeloid Cell Leukemia 1 (Mcl-1) (Homo sapiens, UniProt Q07820). Briefly: biochemical. Conditions: HTRF Ki (nM). The assay is classed as binding. In general terms: In TR-FRET formats the signal depends on donor and acceptor labels being close together.
Another assay deals with MOLP8 cell line. The experiment in a line: MOLP8 CellEvent Caspase-3/7 Green live-cell IncuCyte apoptosis assay. Conditions: averaged values. The assay is classed as cell-based, human. The procedure:
MCL-1 is a regulator of apoptosis and is highly over-expressed in tumor cells that escape cell death. The assay evaluates the cellular potency of small-molecule compounds targeting regulators of the apoptosis pathway, primarily MCL-1, Bfl-1, Bcl-2, and other proteins of the Bcl-2 family. Protein-protein inhibitors disrupting the interaction of anti-apoptotic regulators with BH3-domain proteins initiate apoptosis.
Activation of the apoptotic pathway was measured using the CellEvent™ Caspase-3/7 Green ReadyProbes™ Reagent (Thermo Fisher C10423, C10723). This assay produces a green fluorescent stain in cells that enter the apoptosis pathway. CellEvent® Caspase-3/7 Green reagent is a four amino acid peptide (DEVD) conjugated to a nucleic acid-binding dye that is non-fluorescent when not bound to DNA. The CellEvent® Caspase-3/7 Green reagent is intrinsically non-fluorescent, as the DEVD peptide inhibits binding of the dye to DNA. Upon activation of caspase-3/7 in apoptotic cells, the DEVD peptide is cleaved and the free dye can bind DNA, generating a bright green fluorescence. The activation of Caspase-3 and Caspase-7 is downstream of inhibition of MCL-1 or other apoptosis inhibiting proteins in cell lines that are dependent on them.
The live-cell readout on the IncuCyte permits tracking over time of the Caspase activation. […] The IncuCyte readout also allows one to normalize for cell number, as the suspension cells are hard to distribute evenly.
Signals were measured every 2 h for a duration of 22 h. The ratio of the Caspase mask to the Confluence mask, per image, as raw data, was calculated and the kinetic trace for every well was exported to Genedata Screener for analysis.
In Genedata Screener values for 6 h, 12 h, and 22 h from the kinetic traces were extracted. The values were normalized against negative controls (untreated cells). A standard dose-response analysis was performed on the normalized data.
The following data was reported at each of the following three aforementioned time points: (a) The dose-response curve, (b) The qAC50 and qAC50 Mode, and (c) Max Activity.
Cells were maintained in culture medium containing 10% Heat Inactivated (HI) FBS, 2 mM L-Glutamine and 50 μg/mL Gentamycin phenol red free RPMI-1640. Cells were split at 0.4 million/mL twice a week.
On Day 1, plates containing individual wells with test compounds at 10 mM concentration, 150 nL per well. The final concentrations range from […] compound (and no compound control) and compounds were thawed at room temperature for 1 hour. 25 μl of prewarmed medium was added into each well by multidrop (column 1, 3-22, 24), followed by addition of DMSO control (0.6% DMSO) in column 2. The plate was sealed using Breathe-Easy® sealing membrane and shaken for 30 min at room temperature to dissolve the test compound(s) in medium. The plate was then kept in the incubator for 1 hour at 37° C., 5% CO2.
MOLP8 cells in medium at […] (20000/50 μl final in assay) were prepared with CellEvent™ Caspase-3/7 Green Detection Reagent at 4 μM (2 μM final in assay). Once prepared, the cells were added to the test compound plate in an amount of 20000 and the plate was immediately placed in the IncuCyte and imaging started using following settings: 10× objective, 2 s exposure time in green channel, interval of 2 h, acquisition stopped after 22 h.
For analysis in IncuCyte, a Basic Analysis protocol was defined to calculate the “confluence” and “caspase” areas from the “Phase” and “green” images, respectively, as follows: (a) Confluence: Segmentation Adjustment 1, Hole Fill 0, Adjust Size −2, No filters (b) Caspase: Top-Hat segmentation, Radius 10, Threshold 0.3 GCU, Edge Split On with sensitivity 0, Hole Fill 0, Adjust Size 1, and filter on a minimum Area of 20 μm^2. The analyzer is trained on a sufficient number of positive and negative control wells, as well as compound treated wells, verifying that the “confluence” layer detects both live and dead (condensed) cells. […]

The mark [2] stands for this setting: read-out: MOLP8 Caspase 3/7 AC50 at 6 h, MOLP8 cells, 6 h.
Setting [3] is: read-out: MOLP8 Caspase 3/7 AC50 at 12 h, MOLP8 cells, 12 h.
Where [4] appears, read: read-out: MOLP8 Caspase 3/7 AC50 at 22 h, MOLP8 cells, 22 h.
Setting [5] is: Homo sapiens, MOLP-8, 6 h, read-out: MOLP8 Caspase 3/7 AC50 at 6 h (μM), MOLP8 cells, 6 h.
[6] abbreviates: Homo sapiens, MOLP-8, 12 h, read-out: MOLP8 Caspase 3/7 AC50 at 12 h (μM), MOLP8 cells, 12 h.
Where [7] appears, read: Homo sapiens, MOLP-8, 22 h, read-out: MOLP8 Caspase 3/7 AC50 at 22 h (μM), MOLP8 cells, 22 h.

“And” between values parts separate entries of the source, which are not always exact repeats. Identical values can stand only once. Like-named read-outs stand apart in the source and are kept apart here.

Chain of Myeloid Cell Leukemia 1 (Mcl-1) (Q07820 whole entry): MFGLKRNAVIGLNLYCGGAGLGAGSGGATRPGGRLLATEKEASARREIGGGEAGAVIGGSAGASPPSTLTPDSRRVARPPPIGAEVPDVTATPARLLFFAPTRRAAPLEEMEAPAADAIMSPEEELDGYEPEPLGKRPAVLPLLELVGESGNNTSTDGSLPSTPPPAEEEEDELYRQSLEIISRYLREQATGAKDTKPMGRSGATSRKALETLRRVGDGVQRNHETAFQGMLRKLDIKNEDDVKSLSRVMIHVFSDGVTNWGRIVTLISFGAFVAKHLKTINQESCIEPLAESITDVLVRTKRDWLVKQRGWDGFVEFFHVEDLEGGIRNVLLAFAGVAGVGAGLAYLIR

Regarding `COCCn1nc(C)c2c1CN(C)Cc1cc(n(C)n1)CSc1cc(c3ccccc3c1)OCCCc1c(C(=O)O)n(C)c3c-2c(Cl)ccc13` (single isomer, unassigned) [Compound 25], in assay [1], the inhibitory constant (Ki) amounted to 0.04 nM. Besides, the AC50 with MOLP8 cell line (setting [2]) stood at 0.09 µM; in the assay with MOLP8 cell line (setting [3]), 0.1 µM; in the assay on MOLP8 cell line (setting [4]), 0.11 µM.
The molecule `Cc1c2c(nn1CCCN1CCOCC1)CN(C)Cc1cc(n(C)n1)CSc1cc(c3ccccc3c1)OCCCc1c(C(=O)O)n(C)c3c-2c(Cl)ccc13` (single isomer, unassigned) [Compound 35] had a Ki in assay [1] of 0.04 nM. In addition, the AC50 in the assay with MOLP8 cell line (setting [2]), in the assay on MOLP8 cell line (setting [3]) and in the assay on MOLP8 cell line (setting [4]) was 0.15 µM each time.
As for `Cc1c2c(nn1CCO)CN(C)Cc1cc(n(C)n1)CSc1cc(c3ccccc3c1)OCCCc1c(C(=O)O)n(C)c3c-2c(Cl)ccc13` (single isomer, unassigned) [Compound 37], in assay [1], the Ki is 0.06 nM and 0.04 nM. The AC50 with MOLP8 cell line (setting [2]) was found to be 0.71 µM; in the assay on MOLP8 cell line (setting [3]), 0.62 µM; in the assay with MOLP8 cell line (setting [4]), 0.56 µM.
With `Cc1nn(CCO)c2c1-c1c(Cl)ccc3c(c(C(=O)O)n(C)c13)CCCOc1cc(cc3ccccc13)SCc1cc(nn1C)CN(C)C2` (single isomer, unassigned) [Compound 39], the inhibitory constant (Ki) in assay [1] is 0.06 nM and 0.05 nM. For the same molecule, the AC50 with MOLP8 cell line (setting [2]) turned out to be 0.65 µM; in the assay with MOLP8 cell line (setting [3]), 0.85 µM; in the assay on MOLP8 cell line (setting [4]), 0.65 µM.
For the molecule `CCn1nc2cc1CSCc1nn(C)c(C)c1-c1c(Cl)ccc3c(c(C(=O)O)n(C)c13)CCCOc1cc(cc3ccccc13)SC2` [Compound 1], the inhibitory constant (Ki) in assay [1] came to 0.15 nM. Besides, the AC50 in the assay with MOLP8 cell line (setting [5]) was 0.13 µM; with MOLP8 cell line (setting [6]), 0.13 µM; with MOLP8 cell line (setting [7]), 0.11 µM.
`Cc1c2c(nn1C)CSCc1cc(nn1CCN(C)C)CSc1cc(c3ccccc3c1)OCCCc1c(C(=O)O)n(C)c3c-2c(Cl)ccc13` [Compound 4]: in assay [1], the Ki is 0.09 nM and 0.1 nM. The AC50 in the assay on MOLP8 cell line (setting [5]) stood at 0.22 µM; with MOLP8 cell line (setting [6]), 0.25 µM; with MOLP8 cell line (setting [7]), 0.23 µM.
In the case of `Cc1c2c(nn1C)CSCc1cc(n(CCN(C)C)n1)CSc1cc(c3ccccc3c1)OCCCc1c(C(=O)O)n(C)c3c-2c(Cl)ccc13` [Compound 5], the Ki in assay [1] is 0.06 nM and 0.08 nM. Besides, the results for the AC50 in the assay on MOLP8 cell line (setting [5]), in the assay with MOLP8 cell line (setting [6]) and in the assay on MOLP8 cell line (setting [7]) were 0.08 µM, 0.08 µM and 0.07 µM, respectively.
In turn, `Cc1c2c(nn1C)CSCc1cc(n(CCO)n1)CSc1cc(c3ccccc3c1)OCCCc1c(C(=O)O)n(C)c3c-2c(Cl)ccc13` [Compound 7] showed an inhibition constant (Ki) in assay [1] of less than 0.094 nM. For the same molecule, the AC50 worked out at 0.47 µM in the assay on MOLP8 cell line (setting [5]), 0.45 µM in the assay with MOLP8 cell line (setting [6]) and 0.46 µM in the assay on MOLP8 cell line (setting [7]).
Turning to `Cc1c2c(nn1C)CSCc1cc(nn1CCN1CCOCC1)CSc1cc(c3ccccc3c1)OCCCc1c(C(=O)O)n(C)c3c-2c(Cl)ccc13` [Compound 8], the Ki in assay [1] is 0.13 nM and 0.08 nM. In addition, the values for the AC50 with MOLP8 cell line (setting [5]), in the assay on MOLP8 cell line (setting [6]) and with MOLP8 cell line (setting [7]) were 0.24 µM, 0.24 µM and 0.25 µM, respectively.
For the molecule `Cc1c2c(nn1C)CSCc1cc(n(CCN3CCOCC3)n1)CSc1cc(c3ccccc3c1)OCCCc1c(C(=O)O)n(C)c3c-2c(Cl)ccc13` [Compound 9], affinity in assay [1] was put at a Ki of 0.05 nM. In addition, the results for the AC50 in the assay on MOLP8 cell line (setting [5]), in the assay on MOLP8 cell line (setting [6]) and with MOLP8 cell line (setting [7]) were 0.1 µM, 0.097 µM and 0.1 µM, respectively.
Regarding `Cc1c2c(nn1C)CSCc1cc(n(CC3CCOCC3)n1)CSc1cc(c3ccccc3c1)OCCCc1c(C(=O)O)n(C)c3c-2c(Cl)ccc13` [Compound 12], the Ki in assay [1] is 0.05 nM and 0.08 nM. Also, the AC50 in the assay with MOLP8 cell line (setting [5]) is 0.18 µM; in the assay on MOLP8 cell line (setting [6]), 0.18 µM; in the assay on MOLP8 cell line (setting [7]), 0.13 µM.

Broadly, the Ki is the equilibrium dissociation constant of an inhibitor or competing ligand from its target. Low readings indicate a stronger hold on the target, high ones a looser hold on the target.
